In patent US9334263B2, “Compositions useful for treating disorders related to kit” (BLUEPRINT MEDICINES CORPORATION, priority 2013, dated 2016) one finds IC50 data, which are given here for 37 molecules.

Assay [1] concerns the target T1, Kit D816V (HMC1.2 cells, Kit V560G and D816V) (Homo sapiens, UniProt P10721, D816V/V560G).
T1 construct: endogenous in cells; host or cells: HMC1.2 cells
Kind of assay: HMC1.2 autophosphorylation assay (AlphaLISA, phospho-Y719 c-Kit). The class given is cell-based. The following applies: Kit autophosphorylation at tyrosine 719, 90 minutes, read-out: Cellular Activity. The protocol:
HMC1.2 Autophosphorylation Assay:
10,000 HMC1.2 cells were incubated in 22 ul culture media (phenol-red free IMDM, no serum) in each well of a 384-well plate and serum starved overnight in a tissue culture incubator (5% CO2, 37° C.). A 10-point dose concentration series of compound (25 uM-95.4 pM) were then added to the cells in a volume of 3.1 ul to each well (0.25% DMSO final concentration). After 90 minutes, 6 ul of 5× AlphaLISA Lysis Buffer (Perkin Elmer) supplemented with a protease and phosphatase inhibitor cocktail (Cell Signaling Technologies) was added to each well and shaken at 450 rpm for 15 minutes at 4° C. 10 ul of phospho-Y719 c-Kit and total c-Kit antibodies (15 nM final concentration, Cell Signaling Technologies) and 50 ug/ml AlphaLISA rabbit acceptor beads (Perkin Elmer) were added to each well and shaken at 300 rpm at room temperature for 2 hours. 10 ul of 100 ug/ml streptavidin donor beads (Perkin Elmer) were added to each well, blocked from light with aluminum adhesive and shaken at 300 rpm at room temperature for 2 hours. Fluorescence signal was obtained on Envision (Perkin Elmer) by AlphaScreen 384 well HTS protocol.
This cell line contains Kit mutated at positions V560G and D816V resulting in constitutive activation of the kinase. The following compounds were tested in an assay to measure direct inhibition of Kit D816V kinase activity by assaying Kit autophosphorylation at tyrosine 719 on the Kit protein.
For orientation: Bead proximity is the source of the signal in Alpha formats.

Assay [2] deals with T2, D816V Kit (Homo sapiens, UniProt P10721, D816V).
T2 construct: purchased Carna Bioscience 08-156
Kind of assay: Kit D816V assay at Km (Caliper electrophoretic mobility shift). The class given is biochemical. The following applies: 15 uM ATP, 25 C, 90 minutes. Here is the method:
In order to assess the activity of chemical compounds against the relevant kinase of interest, the Caliper LifeSciences electrophoretic mobility shift technology platform is used. Fluorescently labeled substrate peptide is incubated in the presence of kinase and ATP so that a […] proportion of the peptide is phosphorylated. At the end of the reaction, the mix of phosphorylated (product) and non-phosphorylated (substrate) peptides are passed through the microfluidic system of the Caliper EZ Reader 2, under an applied potential difference. The presence of the phosphate group on the product peptide provides a difference in mass and charge between those of the substrate peptide, resulting in a separation of the substrate and product pools in the sample. As the pools pass a LEDS within the instrument, these pools are detected and resolved as separate peaks. The ratio between these peaks therefore reflects the activity of the chemical matter at that concentration in that well, under those conditions.
The reaction was stopped by the addition of 70 ul of Stop buffer (100 mM HEPES pH 7.5, 0.015% Brij 35, 35 mM EDTA and 0.2% of Coating Reagent 3 (Caliper Lifesciences)). The plate was then read on a Caliper EZReader 2 (protocol settings: −1.9 psi, upstream voltage −700, downstream voltage −3000, post sample sip 35 s).

A value given as a limit tells only on which side of the number the result lay.

T1 sequence (P10721 26-976 V560G/D816V): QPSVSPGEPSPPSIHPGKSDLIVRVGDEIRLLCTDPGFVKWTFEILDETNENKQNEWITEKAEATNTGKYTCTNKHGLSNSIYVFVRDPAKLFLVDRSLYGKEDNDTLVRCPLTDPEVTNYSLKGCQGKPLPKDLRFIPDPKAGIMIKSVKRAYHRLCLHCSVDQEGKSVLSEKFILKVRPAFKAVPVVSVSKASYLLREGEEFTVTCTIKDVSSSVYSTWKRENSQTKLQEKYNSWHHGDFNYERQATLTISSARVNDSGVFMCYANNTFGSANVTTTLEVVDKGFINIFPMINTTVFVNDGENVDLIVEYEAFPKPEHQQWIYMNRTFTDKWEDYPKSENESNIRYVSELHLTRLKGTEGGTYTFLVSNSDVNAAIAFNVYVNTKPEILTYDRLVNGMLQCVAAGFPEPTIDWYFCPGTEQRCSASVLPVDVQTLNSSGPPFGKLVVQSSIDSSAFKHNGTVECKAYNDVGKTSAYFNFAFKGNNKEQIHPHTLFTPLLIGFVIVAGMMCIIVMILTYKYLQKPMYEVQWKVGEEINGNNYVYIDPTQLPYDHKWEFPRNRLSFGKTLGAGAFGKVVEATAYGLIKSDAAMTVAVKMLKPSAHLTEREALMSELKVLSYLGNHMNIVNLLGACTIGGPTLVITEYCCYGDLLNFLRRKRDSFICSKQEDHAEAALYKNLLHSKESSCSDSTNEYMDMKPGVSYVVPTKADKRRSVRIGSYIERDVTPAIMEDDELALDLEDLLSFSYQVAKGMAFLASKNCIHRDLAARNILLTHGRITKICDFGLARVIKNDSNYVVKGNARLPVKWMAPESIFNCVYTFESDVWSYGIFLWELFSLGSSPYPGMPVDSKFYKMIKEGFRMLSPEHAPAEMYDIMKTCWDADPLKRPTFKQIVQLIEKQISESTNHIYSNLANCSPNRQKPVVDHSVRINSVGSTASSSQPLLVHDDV
T2 sequence (P10721 26-976 D816V): as the sequence (P10721 26-976 V560G/D816V) above, with G535V counted along it

As for `c1ccc(Cc2cnc(N3CCN(c4ncnc(Nc5cnn(C[C@H]6COCCN6)c5)n4)CC3)nc2)cc1` [Compound 125], the IC50 was 10 to 100 nM in assay [1] and less than 1 nM in assay [2].
For `Fc1ccc(Nc2cnc(N3CCN(c4ncnc(Nc5cnn(C[C@@H]6CNCCO6)c5)n4)CC3)nc2)cc1` [Compound 200] the same measures were 100 to 1000 nM and 1.01 to 10 nM.
For `Cn1cc(Nc2ncnc(N3CCN(c4ncc([C@](C)(O)c5ccc(F)cc5)cn4)CC3)n2)cn1` [Compound 39] the same measures were 10 to 100 nM and less than 1 nM.
In the same order, the values of `Nc1nc(N2CCN(c3ncnc(Nc4cnn(CC5CNCCO5)c4)n3)CC2)ncc1Cl` (centres unmarked) [Compound 34] are 1000 to 10000 nM and 10 to 100 nM.
Take `Fc1cccc(F)c1Cc1cnc(N2CCN(c3ncnc(Nc4ccc5c(c4)CNCC5)n3)CC2)nc1` [Compound 136]: the IC50 is 100 to 1000 nM in assay [1] and 1.01 to 10 nM in assay [2].
`O=S1(=O)Cc2ccc(Nc3ncnc(N4CCN(c5ncc(Cc6ccccc6)cn5)CC4)n3)cc2CN1` [Compound 192]: the IC50 in assay [1] was less than 10 nM; in assay [2], less than 1 nM.
For `Fc1cccc(Oc2cnc(N3CCN(c4ncnc(Nc5cnn(C[C@@H]6CNCCO6)c5)n4)CC3)nc2)c1` [Compound 204] the same measures were 100 to 1000 nM and 1.01 to 10 nM.
With `Cc1cc(N2CCNCC2)ccc1Nc1ncnc(N2CCN(c3ncc(Cc4ccccc4)c(N)n3)CC2)n1` [Compound 228], the values for the IC50 in assay [1] and in assay [2] were 100 to 1000 nM and 1.01 to 10 nM, respectively.
Turning to `Fc1cccc(Cc2cnc(N3CCN(c4ncnc(Nc5cnn(C[C@@H]6CNCCO6)c5)n4)CC3)nc2)c1` [Compound 197], the IC50 was 100 to 1000 nM in assay [1] and 1.01 to 10 nM in assay [2].
In the same order, the values of `C[C@@H](O)CN1CCc2ccc(Nc3ncnc(N4CCN(c5ncc(Cc6ccccc6)cn5)CC4)n3)cc2C1` [Compound 220] are 10 to 100 nM and less than 1 nM.
For `c1ccc(OCc2cnc(N3CCN(c4ncnc(Nc5cnn(C[C@@H]6CNCCO6)c5)n4)CC3)nc2)cc1` [Compound 190], the results for the IC50 in assay [1] and in assay [2] were 10 to 100 nM and 1.01 to 10 nM, respectively.
As for `CC(C)(c1ccccc1)c1cnc(N2CCN(c3ncnc(Nc4ccc([C@H](O)CO)cc4)n3)CC2)nc1` [Compound 119], the IC50 is less than 10 nM in assay [1] and less than 1 nM in assay [2].
With `O[C@H]1CCCN(c2ccc(Nc3ncnc(N4CCN(c5ncc(Cc6ccc(F)cc6)cn5)CC4)n3)cc2)C1` [Compound 240], the IC50 in assay [1] was less than 10 nM; in assay [2] it was 1.01 to 10 nM.
For the molecule `Cc1nn(C[C@@H]2CNCCO2)cc1Nc1ncnc(N2CCN(c3ncc(Cc4ccccc4)cn3)CC2)n1` [Compound 184], the IC50 in assay [1] was 10 to 100 nM; in assay [2], 1.01 to 10 nM.
In the same order, the values of `O=C1CCc2ccc(Nc3ncnc(N4CCN(c5ncc(Cc6ccccc6)cn5)C(CCO)C4)n3)cc2N1` (centres unmarked) [Compound 213] are 10 to 100 nM and 1.01 to 10 nM.
With `c1ccc(Cc2cnc(N3CCN(c4ncnc(Nc5ccc6cn[nH]c6c5)n4)CC3)nc2)cc1` [Compound 21], the IC50 was in the range of 100 to 1000 nM in assay [1] and 1.01 to 10 nM in assay [2].
For the molecule `COc1cccc(Cc2cnc(N3CCN(c4ncnc(Nc5cnn(C[C@@H]6CNCCO6)c5)n4)CC3)nc2)c1` [Compound 249], the IC50 in assay [1] fell in the range of 10 to 100 nM; in assay [2] it was 1.01 to 10 nM.
In the same order, the values of `Fc1cccc(Cc2cnc(N3CCN(c4ncnc(Nc5ccc6c(c5)CNCC6)n4)CC3)nc2)c1` [Compound 80] are 10 to 100 nM and 1.01 to 10 nM.
Take `CC1(Cn2cc(Nc3ncnc(N4CCN(c5ncc(Cc6ccccc6)cn5)CC4)n3)cn2)COC1` [Compound 87]: the figures for the IC50 in assay [1] and in assay [2] were 10 to 100 nM and 1.01 to 10 nM, respectively.
In the case of `CCN1CCO[C@H](Cn2cc(Nc3ncnc(N4CCN(c5ncc(Cc6ccccc6)cn5)CC4)n3)cn2)C1` [Compound 241], the IC50 in assay [1] was in the range of 10 to 100 nM; in assay [2], 1.01 to 10 nM.
In the same order, the values of `Fc1ccccc1Sc1cnc(N2CCN(c3ncnc(Nc4ccc(C5CNCCO5)cc4)n3)CC2)nc1` (centres unmarked) [Compound 251] are 100 to 1000 nM and 1.01 to 10 nM.
Regarding `c1ccc(Cc2cnc(N3CCN(c4ncnc(Nc5ccc(O[C@H]6CCCNC6)nc5)n4)CC3)nc2)cc1` [Compound 171], the IC50 lay within 10 to 100 nM in assay [1] and 1.01 to 10 nM in assay [2].
For `c1cnc(N2CCN(c3ncnc(Nc4ccc5c(c4)CNCC5)n3)CC2)nc1` [Compound 2] the same measures were 1000 to 10000 nM and 1.01 to 10 nM.
For `C[C@H](c1ccccc1)c1cnc(N2CCN(c3ncnc(Nc4ccc(N5CCC[C@@H](O)C5)cc4)n3)CC2)nc1` [Compound 223] the same measures were 10 to 100 nM and 1.01 to 10 nM.
In the case of `Cc1c(Nc2ncnc(N3CCN(c4ncc([C@](C)(O)c5ccc(F)cc5)cn4)CC3)n2)cnn1C[C@@H]1CNCCO1` [Compound 277], the IC50 is 10 to 100 nM in assay [1] and less than 1 nM in assay [2].
In the same order, the values of `OC[C@@H](O)COc1ccc(Nc2ncnc(N3CCN(c4ncc(Cc5ccccc5)cn4)CC3)n2)cc1` [Compound 129] are 10 to 100 nM and 1.01 to 10 nM.
For `Cc1c(Nc2ncnc(N3CCN(c4ncc(Cc5ccccc5)cn4)CC3)n2)cnn1C[C@@H]1CNCCO1` [Compound 185] the same measures were 10 to 100 nM and 1.01 to 10 nM.
Consider `C[C@](O)(c1ccccc1)c1cnc(N2CCN(c3ncnc(Nc4ccc(N5CCOCC5)cc4)n3)CC2)nc1` [Compound 235], for which the IC50 in assay [1] was less than 10 nM; in assay [2], less than 1 nM.
In the same order, the values of `c1ccc(Cc2cnc(N3CCN(c4ncnc(Nc5cnn(C[C@@H]6COCCN6)c5)n4)CC3)nc2)cc1` [Compound 126] are 100 to 1000 nM and 1.01 to 10 nM.
Consider `C[C@](N)(c1ccc(F)cc1)c1cnc(N2CCN(c3ncnc(Nc4ccc(N5CCC[C@H](O)C5)cc4)n3)CC2)nc1` [Compound 275], for which the IC50 in assay [1] was 10 to 100 nM; in assay [2], less than 1 nM.
Regarding `OC1(c2ccc(Nc3ncnc(N4CCN(c5ncc(Cc6ccccc6)cn5)CC4)n3)cc2)COC1` [Compound 79], the figures for the IC50 in assay [1] and in assay [2] were 10 to 100 nM and 1.01 to 10 nM, respectively.
For `Fc1ccc(OCc2cnc(N3CCN(c4ncnc(Nc5cnn(C[C@@H]6CNCCO6)c5)n4)CC3)nc2)cc1` [Compound 253] the same measures were 10 to 100 nM and 1.01 to 10 nM.
In the same order, the values of `OC[C@@H](O)Cn1cc(Nc2ncnc(N3CCN(c4ncc(Cc5ccccc5)cn4)CC3)n2)cn1` [Compound 65] are 10 to 100 nM and less than 1 nM.
Regarding `Nc1nc(N2CCN(c3ncnc(Nc4cnc5c(c4)CNCC5)n3)CC2)ncc1Cc1ccccc1` [Compound 78], the IC50 in assay [1] was 10 to 100 nM; in assay [2], less than 1 nM.
On to `CC(C)(O)Cn1cc(Nc2ncnc(N3CCN(c4ncc([C@@](C)(O)c5ccc(F)cc5)cn4)CC3)n2)cn1` [Compound 208], for which the IC50 in assay [1] is less than 10 nM; in assay [2] it was less than 1 nM.
For `c1ccc(Cc2cnc(N3CCN(c4ncnc(Nc5cnn(C[C@H]6COCCO6)c5)n4)CC3)nc2)cc1` [Compound 133] the same measures were 10 to 100 nM and less than 1 nM.
In the case of `c1ccc(Cc2cnc(N3CCN(c4ncnc(Nc5ccc(OC6CNC6)cc5)n4)CC3)nc2)cc1` [Compound 77], the IC50 in assay [1] was in the range of 10 to 100 nM; in assay [2], 1.01 to 10 nM.
